From patent US5478812A, “Chromanol glycoside and method for production thereof” (CCI Corporation, priority 1993, dated 1995)
In brackets after ≈: the same amount, converted by molar mass. Like-named read-outs stand apart in the source and are kept apart here.

Tests used:
[1] = background statement, in words; cited from earlier work
solubility in water = assay type: physicochemical; conditions: water, 25 °C, constant stirring at 200 rpm; HPLC; read-out: solubility in water (amounts of sample dissolved in 1 ml of water)
Text: The chromanol glycoside obtained in Examples 1 to 5 [6-hydroxy-2,5,7,8-tetramethyl chroman-2-methyl-α-D-glucopyranoside represented by the aforementioned formula (4)], the chromanol glycoside obtained in Examples 6 to 8 [6-hydroxy-2,5,7,8-tetramethyl chroman-2-ethyl-α-D-glucopyranoside represented by the aforementioned formula (7)], the chromanol glycoside obtained in Examples 4 and 5 [6-hydroxy-2,5,7,8-tetramethyl chroman-2-methyl-α-D-maltopyranoside represented by the aforementioned formula (5)], and the chromanol glycoside obtained in Example 8 [6-hydroxy-2,5,7,8-tetramethyl chroman-2-ethyl-α-D-maltopyranoside represented by the aforementioned formula (8)] were tested for solubility in water. Specifically, this test was performed by adding an excess amount of a given chromanol glycoside to 1 ml of water. The reaction mixture was incubated at 25° C. for […] with constant stirring at 200 rpm. After 100 hours, the reaction mixture was transferred into a membrane filter (produced by Nihon Millipore Ltd. and marketed under trademark designation of "HPLC Sample Prep C02-LG") and insoluble substances were removed by centrifugation (4,100×g, 10 minutes, 20° C.). The filtered solution was subjected to HPLC to determine the amount of chromanol glycoside remaining in the aqueous solution. For the purpose of comparison, the 2-substituted alcohols represented by the aforementioned formulas (3) and […] and Trolox were similarly tested.
The numerals given in the tables represent the amounts of sample dissolved in 1 ml of water.

pH stability = assay type: physicochemical; conditions: 5.5 mM, buffer/ethanol 5:1 v/v, read-out: Residual amounts (%) after 100 hours
Text: The chromanol glycoside obtained in Examples 1 to 5 [6-hydroxy-2,5,7,8-tetramethyl chroman-2-methyl-α-D-glucopyranoside represented by the aforementioned formula (4)], the chromanol glycoside obtained in Examples 6 to 8 [6-hydroxy-2,5,7,8-tetramethyl chroman-2-ethyl-α-D-glucopyranoside represented by the aforementioned formula (7)], the chromanol glycoside obtained in Examples 4 and 5 [6-hydroxy-2,5,7,8-tetramethyl chroman-2-methyl-α-D-maltopyranoside represented by the aforementioned formula (5)], and the chromanol glycoside obtained in Example 8 [6 -hydroxy-2,5,7,8-tetramethyl chroman-2-ethyl-α-D-maltopyranoside represented by the aforementioned formula (8)] were tested for pH stability. This test was specifically performed by incubating a 5.5 mM chromanol glycoside solution (buffer/ethanol, 5:1 v/v) having a varying pH value. At regular intervals, aliquots of the reaction mixture were withdrawn and the residual amounts of chromanol glycoside were measured by HPC. For the purpose of comparison, the 2-substituted alcohols represented by the aforementioned formulas (3) and (6) and Trolox were similarly tested.
It is clearly noted from the test results that the conversion of 2-substituted alcohols into respective glycosides enhances pH stability. The buffer used for the test were 100 mM acetate buffer of pH 5.5, 100 mM phosphate buffer of pH 7.0, and 100 mM tris-HCl buffer of pH 8,5.

thermal stability = assay type: physicochemical; conditions: 5 mM solution in water/ethanol 1:3 v/v, read-out: Residual amounts (%) after 100 hours
Text: The chromanol glycoside obtained in Examples 1 to 5 [6-hydroxy-2,5,7,8-tetramethyl chroman-2-methyl-α-D-glucopyranoside represented by the aforementioned formula (4)], the chromanol glycoside obtained in Examples 6 to 8 [6-hydroxy-2,5,7,8-tetramethyl chroman-2-ethyl-α-D-glucopyranoside represented by the aforementioned formula (7)], the chromanol glycoside obtained in Examples 4 and 5 [6-hydroxy-2,5,7,8-tetramethyl chroman-2methyl-α-D-maltopyranoside represented by the aforementioned formula (5)], and the chromanol glycoside obtained in Example 8 [6-hydroxy-2,5,7,8-tetramethyl chroman-2-ethyl-α-D-maltopyranoside represented by the aforementioned formula (8)]were tested for thermal stability. Specifically, this test was performed by incubating a 5 mM chromanol glycoside solution (water/ethanol, 1:3 v/v) under varying temperature conditions. At regular intervals, aliquots of the reaction mixture were withdrawn and the residual amounts of chromanol glycoside were measured by HPLC. For the purpose of comparison, the 2-substituted alcohols represented by the aforementioned formulas (3) and (6), α-tocopherol, and Trolox were similarly tested.
It is clearly noted from these test results that the conversion of 2-substituted alcohols into corresponding glycosides enhances thermal stability.

[2] = hydroperoxidation of methyl linoleate via radical chain reaction in hexane/isopropyl alcohol; assay type: biochemical; conditions: 0.1 μmol antioxidant in 1.1 ml hexane/isopropyl alcohol 1:1; 37 °C; oil-soluble radical generator; in words
Text: Antioxidant activity on the chromanol glycoside obtained in Examples 1 to 5 [6-hydroxy-2,5,7,8-tetramethyl chroman-2-methyl-α-D-glucopyranoside represented by the aforementioned formula (4)], the chromanol glycoside obtained in Examples 6 to 8 [6-hydroxy-2,5,7,8-tetramethyl chroman-2-ethyl-α-D-glucopyranoside represented by the aforementioned formula (7)], the chromanol glycoside obtained in Examples 4 and 5 [6-hydroxy-2,5,7,8-tetramethyl chroman-2-methyl-α-D-maltopyranoside represented by the aforementioned formula (5)], and the chromanol glycoside obtained in Example 8 [6-hydroxy-2,5,7,8-tetramethyl chroman-2-ethyl-α-D-maltopyranoside represented by the aforementioned formula (8)] was investigated by measuring the hydroperoxidation of methyl linoleate via radical chain reaction. Specifically, this test was performed by incubating 132 μmol of methyl linoleate, 16.5 μmol of an oil-soluble radical generator [2,2'-azo-bis(2,4-dimethyl valeronitrile)], 0.1 μmol of antioxidant in 1.1 ml of a hexane/isopropyl alcohol (1:1 v/v), and the mixture was incubated at 37° C. At regular intervals, aliquots of the reaction mixture were withdrawn and the amount of methyl linoleate hydroperoxides were measured by HPLC. […] EXAMPLE 10

[3] = antioxidant activity using liposomal membranes (phosphatidylcholine hydroperoxides); assay type: biochemical; conditions: 0.1 μmol antioxidant in 1.1 ml 10 mM tris-HCl buffer pH 7.4; water-soluble radical generator; in words
Text: Antioxidant activity on the chromanol glycoside obtained in Examples 1 to 5 [6-hydroxy-2,5,7,8-tetramethyl chroman-2-methyl-α-D-glucopyranoside represented by the aforementioned formula (4)[, the chromanol glycoside obtained in Examples 6 to 8 [6-hydroxy-2,5,7,8-tetramethyl chroman-2-ethyl-α-D-glucopyranoside represented by the aforementioned formula (7)], the chromanol glycoside obtained in Examples 4 and 5 [6-hydroxy-2,5,7,8-tetramethyl chroman-2-methyl-α-D-maltopyranoside represented by the aforementioned formula (5)], and the chromanol glycoside obtained in Example 8 [6-hydroxy-2,5,7,8-tetramethyl chroman-2-ethyl-α-D-malto-pyranoside represented by the aforementioned formula (8)] was investigated by using a liposonal membranes. Specifically, this test was performed by adjusting a reaction solution consisting of 5.5 μmol of a multilameller liposomes of egg yolk phosphatidylcholine, 16.5 μmol of a water-soluble radical generator [2,2'-azo-bis(2-amidinopropane) dihydrochloride], and 0.1 μmol of antioxidant in 1.1 ml of a 10 mM tris-HCl buffer (pH 7.4). At regular intervals, aliquots of the reaction mixture were withdrawn and the amount of phosphatidylcholine hydroperoxides were measured by HPLC.

[4] = acetate buffer/ethanol 5:1, pH 5.5, pH 5.5 (100 mM acetate buffer)
[5] = phosphate buffer/ethanol 5:1, pH 7, pH 7.0 (100 mM phosphate buffer)
[6] = tris-hcl buffer/ethanol 5:1, pH 8.5, pH 8.5 (100 mM tris-HCl buffer)

Row | solubility (solubility in water) [mg/mL] | remaining at 100 h, 5500 µM (pH stability; [4]) [%] | remaining at 100 h, 5500 µM (pH stability; [5]) [%] | remaining at 100 h, 5500 µM (pH stability; [6]) [%] | SMILES | solubility in water [1] | remaining at 100 h, 5000 µM (thermal stability; water/ethanol 1:3, 50 °C) [%] | remaining at 100 h, 5000 µM (thermal stability; water/ethanol 1:3, 60 °C) [%] | remaining at 100 h, 5000 µM (thermal stability; water/ethanol 1:3, 70 °C) [%] | antioxidant activity (methyl linoleate hydroperoxides) [2] | antioxidant activity (phosphatidylcholine hydroperoxides) [3]
1 | 0.2 (≈ 799 µM) | 75 | 35 | 13 | Cc1c(C)c2c(c(C)c1O)CCC(C)(C(=O)O)O2 (centres unmarked) [Trolox, 6-hydroxy-2,5,7,8-tetramethyl chroman-2-carboxylic acid, reference compound] | extremely low solubility in water |  |  |  |  | 
2 |  |  |  |  | Cc1c(C)c2c(c(C)c1O)CCC(C)(CCCC(C)CCCC(C)CCCC(C)C)O2 (stereo not drawn) [α-Tocopherol, reference compound] |  | 85 | 79 | 30 |  | 
3 | 141 | 57 | 16 | 2 | Cc1c(C)c2c(c(C)c1O)CCC(C)(CCO[C@H]1O[C@H](CO)[C@@H](O[C@H]3O[C@H](CO)[C@@H](O)[C@H](O)[C@H]3O)[C@H](O)[C@H]1O)O2 (stereo partly drawn) [formula (8), 6-hydroxy-2,5,7,8-tetramethyl chroman-2-ethyl-α-D-maltopyranoside] |  |  |  |  | excel 3,5-tert-butyl-4-hydroxytoluene and equal α-tocopherol | more effective antioxidants than ascorbic acid
